Our source for the AC50 values is ChEMBL document CHEMBL5291721, “A preclinical secondary pharmacology resource illuminates target-adverse drug reaction associations of marketed drugs” (Nat Commun, 2023).

Targets include Motilin receptor (Homo sapiens, UniProt O43193); Histamine H3 receptor (Homo sapiens, UniProt Q9Y5N1); Histamine H1 receptor (Homo sapiens, UniProt P35367).
In a further experiment the target is Bile salt export pump (Homo sapiens, UniProt O95342). Format: functional.
Another experiment concerns the target T1, Thromboxane A2 receptor (Homo sapiens, UniProt P21731).
T1 sequence (P21731 whole entry): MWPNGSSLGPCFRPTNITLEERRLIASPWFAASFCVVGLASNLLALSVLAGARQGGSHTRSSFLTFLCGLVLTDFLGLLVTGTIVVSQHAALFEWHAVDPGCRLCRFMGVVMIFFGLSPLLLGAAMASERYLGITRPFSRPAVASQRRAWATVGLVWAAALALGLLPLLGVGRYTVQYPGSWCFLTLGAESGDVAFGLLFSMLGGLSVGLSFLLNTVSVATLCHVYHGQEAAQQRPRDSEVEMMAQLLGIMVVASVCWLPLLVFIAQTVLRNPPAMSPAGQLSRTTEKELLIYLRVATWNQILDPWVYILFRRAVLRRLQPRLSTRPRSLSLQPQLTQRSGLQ
Format: functional, cell-based.

Experiment [1] has as its target cGMP-inhibited 3',5'-cyclic phosphodiesterase 3A (Homo sapiens, UniProt Q14432). The experiment is classed as functional.
For experiment [2], the target named is T2, Mu-type opioid receptor (Homo sapiens, UniProt P35372).
The target in experiment [3] is Prostaglandin G/H synthase 1 (Homo sapiens, UniProt P23219). The experiment is classed as functional.
Experiment [4] concerns the target T3, Sodium-dependent serotonin transporter (Homo sapiens, UniProt P31645).
The next experiment concerns the target Prothrombin (Homo sapiens, UniProt P00734). The experiment is classed as functional.
Experiment [5] has as its target 3',5'-cyclic-AMP phosphodiesterase 4A (Homo sapiens, UniProt P27815). The experiment is classed as functional.
In experiment [6] the target is T4, Alpha-2A adrenergic receptor (Homo sapiens, UniProt P08913).
T4 sequence (P08913 whole entry): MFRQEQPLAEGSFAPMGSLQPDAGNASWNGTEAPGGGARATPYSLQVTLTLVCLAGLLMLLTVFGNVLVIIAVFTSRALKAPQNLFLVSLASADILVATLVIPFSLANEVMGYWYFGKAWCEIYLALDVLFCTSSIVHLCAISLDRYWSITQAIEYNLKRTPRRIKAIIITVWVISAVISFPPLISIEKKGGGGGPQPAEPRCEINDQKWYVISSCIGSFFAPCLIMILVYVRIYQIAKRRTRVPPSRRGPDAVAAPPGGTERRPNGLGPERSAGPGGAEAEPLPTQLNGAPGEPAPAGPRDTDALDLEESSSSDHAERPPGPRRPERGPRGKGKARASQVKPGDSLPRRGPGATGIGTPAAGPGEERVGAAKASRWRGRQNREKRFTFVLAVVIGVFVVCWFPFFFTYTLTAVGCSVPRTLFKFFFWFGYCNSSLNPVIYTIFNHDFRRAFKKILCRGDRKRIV
Format: functional, cell-based.

For experiment [7], the target named is T3, Sodium-dependent serotonin transporter. The source holds these as a separate data set.
Experiment [8] concerns the target T2, Mu-type opioid receptor. The source holds these as a separate data set.
Experiment [9] has as its target Beta-1 adrenergic receptor (Homo sapiens, UniProt P08588). The experiment is classed as functional.
Experiment [10] has as its target Neuronal acetylcholine receptor subunit alpha-4 (Homo sapiens, UniProt P43681).
The target in experiment [11] is T4, Alpha-2A adrenergic receptor. The experiment is classed as functional, cell-based. This is another data set of the same source.
Experiment [12] addresses 5-hydroxytryptamine receptor 2B (Homo sapiens, UniProt P41595). The experiment is classed as functional, cell-based.
For experiment [13], the target named is T5, Type-1 angiotensin II receptor (Homo sapiens, UniProt P30556).
T5 sequence (P30556 whole entry): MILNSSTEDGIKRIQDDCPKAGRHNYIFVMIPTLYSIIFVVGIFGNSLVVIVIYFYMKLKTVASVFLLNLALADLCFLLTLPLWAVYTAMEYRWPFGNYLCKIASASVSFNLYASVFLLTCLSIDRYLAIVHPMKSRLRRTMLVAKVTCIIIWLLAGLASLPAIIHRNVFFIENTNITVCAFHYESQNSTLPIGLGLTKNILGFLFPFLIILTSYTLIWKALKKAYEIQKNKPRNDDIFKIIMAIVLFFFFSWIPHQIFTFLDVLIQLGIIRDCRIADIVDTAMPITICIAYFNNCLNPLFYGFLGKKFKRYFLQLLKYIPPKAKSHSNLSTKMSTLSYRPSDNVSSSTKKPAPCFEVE
Note: assay procedure not described here.

Beta-1 adrenergic receptor, sequence (P08588 whole entry): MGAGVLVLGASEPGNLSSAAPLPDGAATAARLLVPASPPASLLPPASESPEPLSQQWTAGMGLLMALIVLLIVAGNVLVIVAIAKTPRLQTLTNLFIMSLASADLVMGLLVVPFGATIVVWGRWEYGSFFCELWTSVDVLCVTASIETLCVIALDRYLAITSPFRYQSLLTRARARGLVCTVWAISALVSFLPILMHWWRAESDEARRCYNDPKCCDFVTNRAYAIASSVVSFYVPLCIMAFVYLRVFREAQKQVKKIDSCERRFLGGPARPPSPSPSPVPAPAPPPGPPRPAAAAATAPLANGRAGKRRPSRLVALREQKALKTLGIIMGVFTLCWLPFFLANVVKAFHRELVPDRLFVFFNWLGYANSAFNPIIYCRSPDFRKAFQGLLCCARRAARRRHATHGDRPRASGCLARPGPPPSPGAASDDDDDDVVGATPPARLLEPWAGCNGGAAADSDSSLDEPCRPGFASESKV
Histamine H1 receptor, sequence (P35367 whole entry): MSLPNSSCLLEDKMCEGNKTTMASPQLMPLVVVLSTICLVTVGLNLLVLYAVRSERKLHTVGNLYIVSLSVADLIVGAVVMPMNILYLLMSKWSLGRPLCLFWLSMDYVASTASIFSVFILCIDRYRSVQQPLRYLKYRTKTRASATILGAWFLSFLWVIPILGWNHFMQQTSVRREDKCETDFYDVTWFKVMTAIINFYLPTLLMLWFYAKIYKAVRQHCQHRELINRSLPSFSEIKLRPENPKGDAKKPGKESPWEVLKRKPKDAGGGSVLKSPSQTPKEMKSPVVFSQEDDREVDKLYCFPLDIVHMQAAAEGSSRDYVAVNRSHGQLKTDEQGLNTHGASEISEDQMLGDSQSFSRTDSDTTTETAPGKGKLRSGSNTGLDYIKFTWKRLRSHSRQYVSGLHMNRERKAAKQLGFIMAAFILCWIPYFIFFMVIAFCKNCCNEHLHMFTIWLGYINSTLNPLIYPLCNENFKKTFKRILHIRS
T3 sequence (P31645 whole entry): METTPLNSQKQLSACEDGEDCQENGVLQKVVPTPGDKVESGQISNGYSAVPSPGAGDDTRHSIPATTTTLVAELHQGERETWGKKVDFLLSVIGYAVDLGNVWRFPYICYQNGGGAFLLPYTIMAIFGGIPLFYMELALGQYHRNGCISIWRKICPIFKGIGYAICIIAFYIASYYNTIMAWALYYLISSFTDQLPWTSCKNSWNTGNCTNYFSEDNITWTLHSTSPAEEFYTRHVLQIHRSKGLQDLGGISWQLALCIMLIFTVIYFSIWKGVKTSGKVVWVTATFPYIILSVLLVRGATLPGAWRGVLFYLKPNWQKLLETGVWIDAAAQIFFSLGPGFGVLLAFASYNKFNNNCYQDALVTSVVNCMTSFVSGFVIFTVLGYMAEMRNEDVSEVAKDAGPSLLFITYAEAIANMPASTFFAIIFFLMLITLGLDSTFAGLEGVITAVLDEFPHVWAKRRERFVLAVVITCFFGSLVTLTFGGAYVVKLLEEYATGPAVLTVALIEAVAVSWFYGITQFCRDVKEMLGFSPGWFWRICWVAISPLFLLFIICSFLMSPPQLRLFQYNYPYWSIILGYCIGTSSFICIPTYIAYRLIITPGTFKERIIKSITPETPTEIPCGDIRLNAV
5-hydroxytryptamine receptor 2B, sequence (P41595 whole entry): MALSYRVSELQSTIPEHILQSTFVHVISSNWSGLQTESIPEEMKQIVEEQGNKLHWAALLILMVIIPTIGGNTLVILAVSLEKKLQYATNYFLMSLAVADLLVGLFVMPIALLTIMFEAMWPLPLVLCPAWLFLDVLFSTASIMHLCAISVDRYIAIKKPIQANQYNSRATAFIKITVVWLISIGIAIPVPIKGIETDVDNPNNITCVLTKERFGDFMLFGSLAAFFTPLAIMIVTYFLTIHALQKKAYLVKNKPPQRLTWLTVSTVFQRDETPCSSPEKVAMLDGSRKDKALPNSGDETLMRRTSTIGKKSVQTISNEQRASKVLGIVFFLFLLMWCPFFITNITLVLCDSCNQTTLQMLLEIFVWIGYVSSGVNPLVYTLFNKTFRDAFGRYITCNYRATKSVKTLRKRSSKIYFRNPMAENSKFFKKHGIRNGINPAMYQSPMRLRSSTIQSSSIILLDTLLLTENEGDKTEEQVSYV
cGMP-inhibited 3',5'-cyclic phosphodiesterase 3A, sequence (Q14432 whole entry): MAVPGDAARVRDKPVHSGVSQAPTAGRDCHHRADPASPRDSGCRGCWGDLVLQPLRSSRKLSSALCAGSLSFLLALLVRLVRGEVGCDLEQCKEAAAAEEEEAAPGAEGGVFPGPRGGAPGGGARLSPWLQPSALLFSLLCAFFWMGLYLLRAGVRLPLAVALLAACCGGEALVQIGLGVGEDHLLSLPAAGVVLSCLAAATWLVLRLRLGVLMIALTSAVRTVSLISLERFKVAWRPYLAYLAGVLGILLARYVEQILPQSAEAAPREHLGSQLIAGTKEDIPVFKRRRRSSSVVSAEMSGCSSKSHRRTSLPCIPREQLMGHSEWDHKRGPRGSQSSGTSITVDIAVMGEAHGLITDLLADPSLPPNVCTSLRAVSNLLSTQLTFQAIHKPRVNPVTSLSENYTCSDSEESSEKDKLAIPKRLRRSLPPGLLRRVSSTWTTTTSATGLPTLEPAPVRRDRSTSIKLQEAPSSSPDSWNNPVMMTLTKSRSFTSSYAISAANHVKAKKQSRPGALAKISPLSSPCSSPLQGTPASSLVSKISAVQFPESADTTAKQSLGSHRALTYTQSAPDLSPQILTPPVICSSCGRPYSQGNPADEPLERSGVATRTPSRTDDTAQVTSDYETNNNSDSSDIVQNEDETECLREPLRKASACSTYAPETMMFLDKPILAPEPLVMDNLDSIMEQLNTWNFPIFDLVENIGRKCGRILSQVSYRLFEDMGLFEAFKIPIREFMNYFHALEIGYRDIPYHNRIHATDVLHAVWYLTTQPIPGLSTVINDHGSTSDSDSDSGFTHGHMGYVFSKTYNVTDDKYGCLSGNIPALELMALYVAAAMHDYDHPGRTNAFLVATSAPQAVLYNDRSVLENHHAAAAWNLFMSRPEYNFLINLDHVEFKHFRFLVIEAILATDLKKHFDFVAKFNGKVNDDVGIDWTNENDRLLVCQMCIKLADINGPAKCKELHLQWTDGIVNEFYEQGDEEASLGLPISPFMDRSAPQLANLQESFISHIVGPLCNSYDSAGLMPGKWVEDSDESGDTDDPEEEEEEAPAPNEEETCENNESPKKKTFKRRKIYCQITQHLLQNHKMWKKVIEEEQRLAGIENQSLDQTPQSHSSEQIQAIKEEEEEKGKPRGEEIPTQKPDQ
Histamine H3 receptor, sequence (Q9Y5N1 whole entry): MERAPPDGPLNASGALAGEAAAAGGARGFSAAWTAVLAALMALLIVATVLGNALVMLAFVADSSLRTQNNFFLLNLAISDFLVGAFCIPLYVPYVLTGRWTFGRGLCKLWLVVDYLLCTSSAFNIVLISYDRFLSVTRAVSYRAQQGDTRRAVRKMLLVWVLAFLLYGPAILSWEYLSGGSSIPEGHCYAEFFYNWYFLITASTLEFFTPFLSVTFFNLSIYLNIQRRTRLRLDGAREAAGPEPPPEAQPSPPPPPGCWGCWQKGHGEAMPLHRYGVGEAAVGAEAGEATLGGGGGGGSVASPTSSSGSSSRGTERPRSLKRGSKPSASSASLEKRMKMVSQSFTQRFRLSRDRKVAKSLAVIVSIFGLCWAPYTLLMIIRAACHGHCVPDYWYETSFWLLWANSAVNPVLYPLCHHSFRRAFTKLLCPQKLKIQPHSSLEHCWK
3',5'-cyclic-AMP phosphodiesterase 4A, sequence (P27815 whole entry): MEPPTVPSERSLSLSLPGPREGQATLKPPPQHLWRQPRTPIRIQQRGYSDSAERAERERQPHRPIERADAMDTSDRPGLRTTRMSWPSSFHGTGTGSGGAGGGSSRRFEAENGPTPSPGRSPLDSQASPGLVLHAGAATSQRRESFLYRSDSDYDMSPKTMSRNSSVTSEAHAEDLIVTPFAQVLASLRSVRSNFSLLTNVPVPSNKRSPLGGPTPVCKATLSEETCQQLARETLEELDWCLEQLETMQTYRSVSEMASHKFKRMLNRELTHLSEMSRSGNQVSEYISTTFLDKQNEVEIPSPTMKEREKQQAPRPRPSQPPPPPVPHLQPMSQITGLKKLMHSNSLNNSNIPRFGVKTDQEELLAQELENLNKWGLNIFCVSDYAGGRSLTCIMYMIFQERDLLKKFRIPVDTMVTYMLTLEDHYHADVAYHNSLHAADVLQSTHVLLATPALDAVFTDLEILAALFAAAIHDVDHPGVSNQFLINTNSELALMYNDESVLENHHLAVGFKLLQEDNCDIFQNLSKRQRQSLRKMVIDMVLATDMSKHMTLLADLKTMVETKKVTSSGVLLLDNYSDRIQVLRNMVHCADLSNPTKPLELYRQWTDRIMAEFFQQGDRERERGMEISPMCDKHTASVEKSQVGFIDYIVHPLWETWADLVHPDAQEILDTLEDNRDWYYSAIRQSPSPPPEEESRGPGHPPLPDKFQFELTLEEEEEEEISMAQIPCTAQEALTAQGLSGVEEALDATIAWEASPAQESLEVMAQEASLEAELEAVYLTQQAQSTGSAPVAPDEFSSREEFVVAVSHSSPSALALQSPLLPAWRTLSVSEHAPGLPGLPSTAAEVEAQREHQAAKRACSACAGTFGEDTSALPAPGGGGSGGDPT
Motilin receptor, sequence (O43193 whole entry): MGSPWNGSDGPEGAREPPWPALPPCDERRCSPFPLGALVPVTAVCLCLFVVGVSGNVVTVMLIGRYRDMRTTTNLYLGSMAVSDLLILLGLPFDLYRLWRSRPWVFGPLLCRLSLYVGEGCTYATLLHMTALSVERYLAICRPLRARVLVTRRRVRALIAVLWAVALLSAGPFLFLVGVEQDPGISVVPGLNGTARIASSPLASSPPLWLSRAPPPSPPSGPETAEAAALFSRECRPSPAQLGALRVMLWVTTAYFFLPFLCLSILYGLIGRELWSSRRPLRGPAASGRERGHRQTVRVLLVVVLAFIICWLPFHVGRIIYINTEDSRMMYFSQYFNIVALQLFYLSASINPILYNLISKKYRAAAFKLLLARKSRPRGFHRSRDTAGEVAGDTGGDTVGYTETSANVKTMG

`OC[C@H]1NC[C@H](O)[C@@H](O)[C@H]1O`: the AC50 was more than 300 µM on Bile salt export pump; more than 30 µM at Thromboxane A2 receptor; more than 30 µM in experiment [1]; more than 30 µM on Mu-type opioid receptor [2]; more than 30 µM in experiment [3]; more than 30 µM in experiment [4]. Also, the half-maximal activity concentration (AC50) (on Prothrombin; in experiment [5]) was more than 30 µM throughout.

On to `CCOCC(O)COc1ccc(NC(=O)CC[S+](C)C)cc1` (configuration not stated), for which the half-maximal activity concentration (AC50) on Bile salt export pump is more than 300 µM; in experiment [6], more than 30 µM; in experiment [7], more than 30 µM; on Mu-type opioid receptor [8], more than 30 µM; on Motilin receptor, more than 30 µM; at Histamine H3 receptor, more than 30 µM. Also, the concentration at half-maximal activity (AC50) (in experiment [9]; in [10]; in experiment [11]; in experiment [12]; in experiment [13]; on Histamine H1 receptor) was more than 30 µM throughout.

Consider `O=C(O)[C@@H](S)[C@@H](S)C(=O)O`, for which the AC50 on Bile salt export pump is 50 µM; at Thromboxane A2 receptor it was more than 30 µM; in [1] it was more than 30 µM; at Mu-type opioid receptor [2], more than 30 µM; in [3], more than 30 µM; in [4], more than 30 µM. For the same molecule, the half-maximal activity concentration (AC50) is 2.64 µM on Prothrombin and more than 30 µM in experiment [5].

`CCC[C@@]1(CCc2ccccc2)CC(O)=C([C@H](CC)c2cccc(NS(=O)(=O)c3ccc(C(F)(F)F)cn3)c2)C(=O)O1`: the AC50 at Bile salt export pump was 3.2 µM; in experiment [6] it was 8.6 µM; in [7], more than 30 µM; on Mu-type opioid receptor [8], more than 30 µM; on Motilin receptor, 27 µM; on Histamine H3 receptor, more than 30 µM. Besides, the AC50 is more than 30 µM in experiment [9]; more than 30 µM in experiment [10]; more than 30 µM in [11]; more than 30 µM in experiment [12]; 11 µM in experiment [13]; more than 30 µM on Histamine H1 receptor.

Take `C=CCOc1ccc(CC(=O)O)cc1Cl` [ALCLOFENAC]: the AC50 on Bile salt export pump is more than 300 µM; at Thromboxane A2 receptor it was more than 30 µM; in experiment [1], more than 30 µM; at Mu-type opioid receptor [2] it was more than 30 µM; in experiment [3] it was more than 30 µM; in [4], more than 30 µM. Further, the half-maximal activity concentration (AC50) (on Prothrombin; in experiment [5]) was more than 30 µM throughout.

With `Cn1cnc2c(F)c(Nc3ccc(Br)cc3F)c(C(=O)NOCCO)cc21` [BINIMETINIB], the AC50 at Bile salt export pump is 87 µM; in experiment [6], more than 30 µM; in experiment [7], more than 30 µM; on Mu-type opioid receptor [8] it was more than 30 µM; on Motilin receptor, more than 30 µM; on Histamine H3 receptor it was more than 30 µM. The AC50 (in experiment [9]; in experiment [10]; in [11]; in experiment [12]; in [13]; on Histamine H1 receptor) was more than 30 µM each time.

Regarding `CN1CCN(C(c2ccccc2)c2ccc(Cl)cc2)CC1` (configuration not stated) [CHLORCYCLIZINE], the concentration at half-maximal activity (AC50) at Bile salt export pump was more than 300 µM; in [1], more than 30 µM; at Mu-type opioid receptor [2], more than 30 µM; in experiment [3] it was more than 30 µM; in experiment [4] it was 15.4 µM; on Prothrombin, more than 30 µM. The molecule also gave an AC50 in [5] of more than 30 µM.

With `O=C(O)[C@H]1/C(=C/CO)O[C@@H]2CC(=O)N21` [CLAVULANIC ACID], the half-maximal activity concentration (AC50) at Bile salt export pump is more than 300 µM; in [6], more than 30 µM; in [7], more than 30 µM; at Mu-type opioid receptor [8], more than 30 µM; on Motilin receptor, more than 30 µM; at Histamine H3 receptor, more than 30 µM. In addition, the AC50 (in experiment [9]; in experiment [10]; in experiment [11]; in experiment [12]; in experiment [13]; at Histamine H1 receptor) was more than 30 µM throughout.

For `O=c1[nH]c2ccccc2n1CCN1CCN(c2cccc(C(F)(F)F)c2)CC1` [FLIBANSERIN], the half-maximal activity concentration (AC50) at Bile salt export pump is 29 µM; at Thromboxane A2 receptor, 10.5 µM; in experiment [1] it was more than 30 µM; at Mu-type opioid receptor [2], 1.3 µM; in experiment [3] it was more than 30 µM; in experiment [4], 17.7 µM. Also, the AC50 on Prothrombin was more than 10 µM; in experiment [5], more than 30 µM.

For `C[C@@H](O)[C@H]1C(=O)N2C(C(=O)O)=C(SCCN=CN)C[C@H]12` [IMIPENEM ANHYDROUS], the AC50 at Bile salt export pump was more than 300 µM; in experiment [6], more than 300 µM; in [7], more than 300 µM; on Mu-type opioid receptor [8] it was more than 300 µM; on Motilin receptor, more than 300 µM; at Histamine H3 receptor it was 180 µM. Also, the concentration at half-maximal activity (AC50) (in experiment [9]; in experiment [10]; in experiment [11]; in [12]; in experiment [13]; on Histamine H1 receptor) was more than 300 µM throughout.

For the molecule `CO[C@@H]1[C@@H](OC(N)=O)[C@@H](O)[C@H](Oc2ccc3c(O)c(NC(=O)c4ccc(O)c(CC=C(C)C)c4)c(=O)oc3c2C)OC1(C)C` [NOVOBIOCIN], the AC50 at Bile salt export pump was 220 µM; in experiment [6] it was more than 30 µM; in [7] it was more than 30 µM; on Mu-type opioid receptor [8], more than 30 µM; on Motilin receptor, more than 30 µM; at Histamine H3 receptor it was more than 30 µM. For the same molecule, the concentration at half-maximal activity (AC50) (in experiment [9]; in [10]; in experiment [11]; in experiment [12]; in experiment [13]; on Histamine H1 receptor) was more than 30 µM each time.

In the case of `COc1cc2c(cc1OC)C1CC(=O)C(CC(C)C)CN1CC2` (configuration not stated) [TETRABENAZINE], the half-maximal activity concentration (AC50) at Bile salt export pump is 74 µM; in experiment [6], 18 µM; in [7], more than 30 µM; at Mu-type opioid receptor [8], more than 30 µM; on Motilin receptor, more than 30 µM; on Histamine H3 receptor, more than 30 µM. In addition, the AC50 (in experiment [9]; in experiment [10]; in [11]; in experiment [12]; in experiment [13]; on Histamine H1 receptor) was more than 30 µM throughout.

`CC(C)(CO)c1cc2cc(NC(=O)C3(c4ccc5c(c4)OC(F)(F)O5)CC3)c(F)cc2n1C[C@@H](O)CO` [TEZACAFTOR]: the AC50 on Bile salt export pump was more than 10 µM; in experiment [6], more than 30 µM; in experiment [7] it was more than 30 µM; at Mu-type opioid receptor [8], more than 30 µM; at Motilin receptor, more than 30 µM; at Histamine H3 receptor, more than 30 µM. Also, the AC50 (in experiment [9]; in experiment [10]; in experiment [11]; in experiment [12]; in experiment [13]; at Histamine H1 receptor) was more than 30 µM throughout.

Regarding `Nc1c2c(nc3ccccc13)CCCC2O` (configuration not stated) [VELNACRINE], the AC50 is more than 300 µM at Bile salt export pump; more than 30 µM in experiment [6]; more than 30 µM in [7]; more than 30 µM at Mu-type opioid receptor [8]; more than 30 µM at Motilin receptor; more than 30 µM on Histamine H3 receptor. Further, the AC50 (in experiment [9]; in experiment [10]; in experiment [11]; in experiment [12]; in experiment [13]; at Histamine H1 receptor) was more than 30 µM throughout.
